# Measurements taken from patent US6410790B1, “3-amin3-arylpropan-1-ol compounds, their preparation and use” (priority 1999, dated 2002).
# Tests used:
# [1] = tested on: phenylquinone-induced writhing reaction; test: phenylquinone-induced writhing test in mice; format: in vivo; conditions: Mus musculus, iv, 10 min, male NMRI mice, 10 mg/kg intravenously, phenylquinone i.p. 10 minutes later
# Outline: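 Male NMRI mice (25–30 g, n=10/group) received test substance i.v. at 10 mg/kg, then 0.02% phenylquinone i.p. 10 min later. Writhing reactions were counted 5–20 min after phenylquinone; % inhibition is relative to saline-treated controls.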
# NA transporter = target: T1, NA transporter (Rattus norvegicus, UniProt Q63380); test: synaptosomal noradrenaline uptake inhibition (NA uptake inhibition); format: biochemical; conditions: read-out: NA Uptake Inhibition at 1 μM, 1 μM in the assay, synaptosomes from rat hypothalamus
# T1 construct: synaptosomes are isolated fresh from rat brains; from tissue; host or cells: rat hypothalamus synaptosomes (P2 fraction)
# T1 sequence (Q63380 1-617): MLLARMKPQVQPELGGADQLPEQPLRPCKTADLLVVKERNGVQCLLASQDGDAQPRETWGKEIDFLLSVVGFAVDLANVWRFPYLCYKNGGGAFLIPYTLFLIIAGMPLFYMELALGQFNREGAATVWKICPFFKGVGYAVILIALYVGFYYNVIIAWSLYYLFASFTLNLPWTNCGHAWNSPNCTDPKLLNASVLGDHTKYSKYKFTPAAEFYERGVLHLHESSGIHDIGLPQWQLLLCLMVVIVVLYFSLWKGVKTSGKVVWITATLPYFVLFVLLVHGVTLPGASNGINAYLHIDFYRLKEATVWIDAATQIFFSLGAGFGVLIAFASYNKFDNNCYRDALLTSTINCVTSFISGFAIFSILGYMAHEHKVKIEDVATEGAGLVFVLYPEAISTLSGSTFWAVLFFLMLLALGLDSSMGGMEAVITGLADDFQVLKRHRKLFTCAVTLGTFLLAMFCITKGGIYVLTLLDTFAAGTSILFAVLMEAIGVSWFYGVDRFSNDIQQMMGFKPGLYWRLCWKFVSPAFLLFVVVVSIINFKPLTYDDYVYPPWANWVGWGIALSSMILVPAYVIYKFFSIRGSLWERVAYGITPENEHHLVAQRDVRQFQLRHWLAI
# Outline: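 IC50 values converted to Ki via Cheng-Prusoff; Km by Lineweaver-Burk. N=4 independent series, each in triplicate, mean ± SEM.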
# [2] = tested on: phenylalkylamine binding site of the L-type calcium channel; test: Verapamil binding, L calcium channel; conditions: 10 μM, percentage inhibition, N-methyl-[3H]-verapamil 2 nM
# Protocol: Binding Investigations in the L Calcium Channel
# Phenylalkylamine Binding Site (Verapamil Binding)
# The biological material (ion channel particles) was prepared on the basis of the publication of Reynolds, Gould and Snyder (I. J. Reynolds, R. J. Gould and S. H. Snyder (1983) […]. 95, 319-321).
# N-methyl-[^3H]-verapamil (2 nM in the assay) was used as radioligand. The radioactivity that is measured in the presence of non-radioactive verapamil (10^−4 M in the assay) is defined as non-specific binding. The material was incubated at 25° C. for 45 minutes. The material was then filtered using a Whatman GF/B filter, followed by washing. The radioactivity remaining on the filter (ion channel binding) was measured using a β-counter.
# For this purpose IC50 values are obtained, which can be converted to inhibitor constants (Ki) according to the “Cheng-Prusoff equation” (Y. C. Clieng and W. H. Prusoff (1973) Biochem. Pharmacol. 22, 3099-3108). The IC50 values were obtained by means of the computer program “Figure P” (version 6.0, Biosoft, Cambridge, England). Km values were calculated according to Lineweaver and Burk (H. Lineweaver and D. Burk (1934) J. Am. Chem. Soc. 56, 658-666). The “Ligand” computer program (version 4, Biosoft, England) was used to obtain Ken values.
# [3] = tested on: benzothiazepine binding site of the L-type calcium channel; test: Diltiazem binding, L calcium channel; design: species or system rat; conditions: 10 μM, percentage inhibition, [3H]-cis-(+)-diltiazem 5 nM, rat cerebral cortex membranes
# Outline: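 Rat cerebral cortex membranes incubated with [^3H]-cis-(+)-diltiazem (5 nM) for 20 min at 25° C; nonspecific binding defined with (±)-diltiazem (10^−6 M). Bound ligand collected by GF/B filtration and counted; IC50 values converted to Ki by Cheng-Prusoff.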
# [4] = tested on: binding site 2 of the sodium channel; test: BTX binding, sodium channel; conditions: 10 μM, percentage inhibition, [3H]-batrachotoxin A20 α-benzoate 10 nM, rat cerebral cortex synaptosomes
# Outline: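 Rat cerebral cortex synaptosomes incubated with 10 nM [^3H]-batrachotoxin A20 α-benzoate at 37° C for 120 min; non-specific binding defined with 0.3 mM veratridine. IC50 values converted to Ki via Cheng-Prusoff; means±SEM of 3 independent series run in triplicate.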
SMILES,inhibition in vivo at 10 mg/kg [1],inhibition at 1 µM (NA transporter),Verapamil Binding at 10 μM [2],Diltiazem Binding at 10 μM [3],BTX Binding at 10 μM [4],melting point
"CN(C)C(c1ccccc1)C1CCCCC1(O)c1ccc(Cl)cc1.Cl (stereo not drawn) [Example 6, 1-(4-chlorophenyl)-2-(dimethylaminophenylmethyl)cyclohexanol, hydrochloride]",83%,51%,60%,96%,90%,
"CN(C)C(c1ccccc1)C1CCCCC1(O)c1ccc(F)cc1.Cl (stereo not drawn) [Example 7, 2-(dimethylaminophenylmethyl)-1-(4-fluorophenyl)cyclohexanol, hydrochloride]",85%,38%,56%,78%,86%,
"Cc1ccc(C2(O)CCCCC2C(c2ccccc2)N(C)C)cc1.Cl (stereo not drawn) [Example 8, 2-(dimethylaminophenylmethyl)-1-p-tolylcyclohexanol, hydrochloride]",81%,50%,56%,68%,88%,168 to 169 °C
"CN(C)c1ccc(C2(O)CCCCC2C(c2ccccc2)N(C)C)cc1.Cl (stereo not drawn) [Example 10, 1-(4-dimethylaminophenyl)-2-[dimethylaminophenylmethyl]cyclohexanol, hydrochloride]",97%,48%,61%,69%,88%,
"CN(C)C(c1ccccc1)C1CCCCC1(O)c1cccc2c1OCO2.Cl (stereo not drawn) [Example 11, 1-benzo[1,3]dioxol-4-yl-2-(dimethylaminophenylmethyl)cyclohexanol, hydrochloride]",99%,54%,61%,85%,79%,
"CN(C)C(c1ccccc1)C1CCCCC1(O)Cc1ccccc1.Cl (stereo not drawn) [Example 14, 1-benzyl-2-(dimethylaminophenylmethyl)cyclohexanol, hydrochloride]",70%,100%,,88%,89%,223 to 225 °C
"CN(C)C(c1ccccc1)C1CCCCC1(O)c1ccc(F)c(C(F)(F)F)c1.Cl (stereo not drawn) [Example 15, 2-(dimethylaminophenylmethyl)-1-(4-fluoro-3-trifluoromethylphenyl)cyclohexanol, hydrochloride]",73%,44%,87%,97%,94%,234 to 237 °C
"CN(C)C(c1ccccc1)C1CCCCC1(O)Cc1ccc(OC(F)(F)F)cc1.Cl (stereo not drawn) [Example 16, 2-(dimethylaminophenylmethyl)-1-(4-trifluoromethoxybenzyl)cyclohexanol, hydrochloride]",75%,89%,91%,100%,98%,
"CN(C)C(c1ccccc1)C1CCCCC1(O)c1ccoc1.Cl (stereo not drawn) [Example 17, 2-(dimethylaminophenylmethyl)-1-furan-3-ylcyclohexanol, hydrochloride]",100%,57%,72%,54%,70%,
"CCCCC1(O)CCCCC1C(c1ccccc1)N(C)C.Cl (stereo not drawn) [Example 18, 1-butyl-2-(dimethylaminophenylmethyl)cyclohexanol, hydrochloride]",100%,84%,75%,81%,95%,
"CN(C)C(c1ccccc1)C1CCCCC1(O)c1ccc2ccccc2c1.Cl (stereo not drawn) [Example 21, 2-(dimethylaminophenylmethyl)-1-naphthalene-2-ylcyclohexanol, hydrochloride]",97%,17%,71%,85%,94%,
"COc1cccc(CC2(O)CCCCC2C(c2ccc(C(F)(F)F)cc2)N(C)C)c1.Cl (stereo not drawn) [Example 22, 2-[dimethylamino-(4-trifluoromethylphenyl)methyl]-1-(3-methoxybenzyl)cyclohexanol, hydrochloride]",68%,91%,80%,72%,98%,
"CN(C)C(c1ccccc1)C1CCCCC1(O)Cc1ccc(C(C)(C)C)cc1.Cl (stereo not drawn) [Example 28, 1-(4-tert.-butylbenzyl)-2-(dimethylaminophenylmethyl)cyclohexanol, hydrochloride]",100%,63%,,89%,100%,227 to 229 °C
"CN(C)C(c1ccccc1)C1CCCCC1(O)Cc1cccc(F)c1.Cl (stereo not drawn) [Example 29, 2-(dimethylaminophenylmethyl)-1-(3-fluorobenzyl)cyclohexanol, hydrochloride]",96%,96%,,72%,88%,146 to 147 °C
